US6908945B2, “Ester compound and its use” (Sumitomo Chemical Company, Limited, priority 2002, dated 2005)

Columns and labels:
[1] = system: female common mosquitoes (Culex pipiens pallens); assay: Knock-down test, oil solution sprayed into cubic chamber, common mosquitoes; format: in vivo; details: 0.7 ml of 0.00625% oil solution sprayed, 70 cm cubic chamber, ten female Culex pipiens pallens, counted for 10 minutes
Excerpt: A solution of 0.00625 part of the present compound (1R,cis-E) dissolved with 10 parts of dichloromethane was mixed with 89.99375 parts of deodorized kerosene to give a […] oil solution.
(§1) Ten female common mosquitoes (Culex pipiens pallens) were left in a cubic chamber (70 cm at side). Seven-tenths (0.7) ml of the 0.00625% oil solution of the present compound prepared above was sprayed with a spray gun at a pressure of 8.8×10^4 Pa from a small window on the side of the chamber. Then, the number of the knocked-down insects was counted at times for 10 minutes. The time for knocking down half of the tested insects was 1.3 minute.
The same test except that 3-phenoxybenzyl (1R,cis)-3-((E)-2-cyano-1-propenyl)-2,2-dimethylcyclopropanecarboxylate, which is a compound described in Indian Patent No. 152306, was used in place of the present compound was performed for reference. The KT50 value was 8.0 minutes.

[2] = system: Adult houseflies; assay: Knock-down test, oil solution sprayed into cubic chamber, adult houseflies; format: in vivo; details: 70 cm cubic chamber, 5 male and 5 female adult houseflies, counted for 10 minutes; for time for knocking down half of the tested insects (KT50): 0.7 ml of 0.00625% oil solution sprayed, two repetitions
Excerpt: A solution of 0.025 part of the present compound prepared by the production example mentioned above dissolved with 10 parts of dichloromethane was mixed with 89.9975 parts of deodorized kerosene to give a […] oil solution.
as §1, with “Adult houseflies (5 males and 5 females)” for “Ten female common mosquitoes (Culex pipiens pallens)”, “0.025%” for “0.00625%”, “1.0” for “1.3”
A solution of 0.00625 part of the present compound prepared by the production example mentioned above dissolved with 10 parts of dichloromethane was mixed with 89.99375 parts of deodorized kerosene to give a 0.00625% oil solution.
Adult houseflies (5 males and 5 females) were left in a cubic chamber (70 cm at side). Seven-tenths (0.7) ml of the 0.00625% oil solution of the present compound prepared above was sprayed with a spray gun at a pressure of 8.8×10^4 Pa from a small window on the side of the chamber. Then, the number of the knocked-down insects was counted at times for 10 minutes (two repetitions). The time for knocking down half of the tested insects (KT50) was observed. The KT50 value was 1.1 minutes.
The same test except that 4-methoxymethy-2,3,5,6-tetrafluorobenzyl (1R,trans)-3-(2-fluoro-1-propenyl)-2,2-dimethylcyclopropanecarboxylate, which is a compound of Example 12 of WO 99/32426, was used in place of the present compound was performed for reference. The KT50 value was 5.0 minutes.

| Structure (SMILES) | time for knocking down half of the tested insects (KT50) [1] [min] | time for knocking down half of the tested insects (KT50) [2] [min] | time for knocking down half of the tested insects ([2]; 0.7 ml of 0.025% oil solution sprayed) [min] |
| --- | --- | --- | --- |
| C/C(C#N)=C\[C@H]1[C@@H](C(=O)OCc2cccc(Oc3ccccc3)c2)C1(C)C (relative stereo) [3-phenoxybenzyl (1R,cis)-3-((E)-2-cyano-1-propenyl)-2,2-dimethylcyclopropanecarboxylate, reference compound] | 8.0 | – | – |
| COCc1c(F)c(F)c(COC(=O)[C@@H]2[C@H](C=C(C)F)C2(C)C)c(F)c1F (relative stereo) [Example 12 of WO 99/32426, 4-methoxymethy-2,3,5,6-tetrafluorobenzyl (1R,trans)-3-(2-fluoro-1-propenyl)-2,2-dimethylcyclopropanecarboxylate, reference compound] | – | 5.0 | – |
| COCc1c(F)c(F)c(COC(=O)C2C(C=C(C)C#N)C2(C)C)c(F)c1F [present compound (1R,cis-E)] | 1.3 | – | – |
| COCc1c(F)c(F)c(COC(=O)C2C(C=C(C)C#N)C2(C)C)c(F)c1F (centres unmarked) [present compound, 4-methoxymethy-2,3,5,6-tetrafluorobenzyl 3-(2-cyano-1-propenyl)-2,2-dimethylcyclopropanecarboxylate] | – | 1.1 | 1.0 |
